The test system of series [1] is Tachyzoites of the RH strain of T. gondii. As to the kind of experiment: T. gondii tachyzoite growth in human foreskin fibroblasts, 3H uracil uptake and microscopy. In kind it is cell-based. Conditions: Toxoplasma gondii, Fibroblast, RH strain tachyzoites in HFF, 3H uracil uptake after four days in culture. Here is the method:
Tachyzoites of the RH strain of T. gondii were passaged in human foreskin fibroblasts (HFF). They were used to infect fibroblasts to determine antimicrobial effects of candidate compounds. Outcome was assessed with microscopy and uracil uptake after four days in culture as described,[12],[13]. Briefly, for testing of inhibitors in vitro against T. gondii tachyzoites, four-day old confluent cultures of human foreskin fibroblasts (HFF) were infected with 10^3 tachyzoites and cultured for 1 hour to allow parasite invasion. Inhibitor was added and cells cultured for 3 days. They were supplemented with ^3H uracil and incubation extended for a further day, whereupon uracil incorporation into cells and thus parasite growth were assessed by liquid scintillation counting,[12],[13]. Studies were performed with inhibitors as described in [8],[12],[13].
For in vitro studies, a stock solution of JPC-2067-B was initially dissolved in 100% dimethyl sulfoxide (DMSO) and then diluted in complete tissue culture medium (IMDM-C) [IMDM with NaHCO3 and 25 mM Hepes (Cambrex Bio Science, Walkersville, MD), 10% fetal bovine serum (Gibco, Grand Island, N.Y.), 1× antibiotic-antimycotic solution (Cellgro, Mediatech), and 2 mM L-glutamine (Gibco). Working concentrations of JPC-2067-B were made using IMDM-C. Concentrations measured ranged from 10 to 100 nM. […]

The test system of series [2] is human foreskin fibroblasts (HFF). Put plainly: Toxicity for host cells, 3H thymidine incorporation by non-confluent HFF. Format: cell-based. Conditions: increasing concentrations, tested concomitantly with T. gondii. (In general: Incorporation of labelled thymidine or its analogues reports DNA synthesis.)
The next series has as its target T1, Mav DHFR (Mycobacterium avium, UniProt O30463).
T1 construct: the bacteria were centrifuged, sonicated, and the 100,000 Xg supernate was stored under liquid nitrogen until assay; endogenous in cells; host or cells: M. avium-intracellulare clinical isolate (serovar 4), Indiana University School of Medicine
T1 sequence (O30463 1-181): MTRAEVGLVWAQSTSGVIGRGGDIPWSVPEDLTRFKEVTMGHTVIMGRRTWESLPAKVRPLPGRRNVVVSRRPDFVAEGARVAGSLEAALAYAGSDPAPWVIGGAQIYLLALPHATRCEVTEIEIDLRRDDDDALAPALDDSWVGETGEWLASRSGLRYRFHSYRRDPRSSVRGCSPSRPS
Put plainly: Spectrophotometric DHFR assay, Mycobacterium avium-intracellulare DHFR. As to conditions: 37°C; (95% confidence limits). Format: biochemical. The method, then:
Mycobacterium avium-intracellulare used in these studies was a clinical isolate (serovar 4) from Indiana University School of Medicine, Department of Pathology. The strain was maintained on Lowenstein-Jensen slants (Baxter Scientific) grown at room temperature. To produce enzyme, the organism was grown in Middlebrook 7H-9 liquid medium at 37°C to an OD660 of 0.5 to 0.7, which took several weeks. At harvest, the bacteria were centrifuged, sonicated, and the 100,000 Xg supernate was stored under liquid nitrogen until assay. These supernates contained both DHFR and dihydroopteroate synthetase activity.
The spectrophotometric assay for DHFR was optimized for temperature and concentration of substrate and cofactor for each enzyme. The standard assay contained Na phosphate buffer pH 7.4 (40.7 mM), 2-mercaptoethanol (8.9 mM), NADPH (0.117 mM), dihydrofolic acid (0.09 mM), KCL (150 mM), and sufficient enzyme to produce a change in OD340 of 0.035/minute at 37°C. The reaction was continuously recorded for 3 minutes. Activity under these conditions was linear with enzyme concentration over a 4-fold range. The low background activity in the absence of dihydrofolic acid was subtracted from all rates.
DHFR was assayed with several concentrations of inhibitor to produce rates ranging from 1 to 90% of the uninhibited rate. At least three concentrations were required for calculation; most curves contained five concentrations.

For a further series, the target named is T2, hDHFR (Homo sapiens, UniProt P00374).
T2 construct: made in house
T2 sequence (P00374 1-187): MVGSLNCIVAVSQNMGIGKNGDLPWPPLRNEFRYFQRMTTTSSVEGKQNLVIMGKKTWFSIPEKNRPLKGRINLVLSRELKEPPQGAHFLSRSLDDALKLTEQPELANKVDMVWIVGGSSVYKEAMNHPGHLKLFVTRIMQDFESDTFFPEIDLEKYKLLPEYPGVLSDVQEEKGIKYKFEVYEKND
Put plainly: Plate reader DHFR assay, recombinant human DHFR. In kind it is biochemical. The source says:
(§1) DHFR from T. gondii prepared as above was also directly compared to purified recombinant P. falciparum DHFR (pfDHFR) and purified recombinant human DHFR (hDHFR). The hDHFR was from pDFR plasmid. The enzyme was purified following ammonium sulfate precipitation, methotrexate:agarose affinity chromatography, and finally a Superdex 200 size exclusion column. The pfDHFR isolation methods were those reported previously,[44]. […] The same buffer as used in the other assays comparing T. gondii DHFR with DHFRs from rat liver P. carinii and M. avium intracellulare was used but the maximal activity, temperature, and length of observation were adjusted for assays on the specific plate reader. […] The reaction was setup at 23°C, the plate loaded, and the OD340 recorded at 20 second intervals for 10 minutes. The first 8 minutes were used to generate linear fit slopes in Excel. […] Results are expressed as the percent of control activity versus log concentration of inhibitor. Prism 5.0 was used to generate curves from 12 different concentrations of inhibitor using a non-linear fit method.

A further series addresses T3, TgDHFR (Toxoplasma gondii, UniProt Q07422).
T3 construct: DHFR from T. gondii was isolated directly from RH strain T. gondii grown in culture; endogenous in cells; host or cells: RH strain T. gondii grown on CHO/dhfr- cells
T3 sequence (Q07422 1-610): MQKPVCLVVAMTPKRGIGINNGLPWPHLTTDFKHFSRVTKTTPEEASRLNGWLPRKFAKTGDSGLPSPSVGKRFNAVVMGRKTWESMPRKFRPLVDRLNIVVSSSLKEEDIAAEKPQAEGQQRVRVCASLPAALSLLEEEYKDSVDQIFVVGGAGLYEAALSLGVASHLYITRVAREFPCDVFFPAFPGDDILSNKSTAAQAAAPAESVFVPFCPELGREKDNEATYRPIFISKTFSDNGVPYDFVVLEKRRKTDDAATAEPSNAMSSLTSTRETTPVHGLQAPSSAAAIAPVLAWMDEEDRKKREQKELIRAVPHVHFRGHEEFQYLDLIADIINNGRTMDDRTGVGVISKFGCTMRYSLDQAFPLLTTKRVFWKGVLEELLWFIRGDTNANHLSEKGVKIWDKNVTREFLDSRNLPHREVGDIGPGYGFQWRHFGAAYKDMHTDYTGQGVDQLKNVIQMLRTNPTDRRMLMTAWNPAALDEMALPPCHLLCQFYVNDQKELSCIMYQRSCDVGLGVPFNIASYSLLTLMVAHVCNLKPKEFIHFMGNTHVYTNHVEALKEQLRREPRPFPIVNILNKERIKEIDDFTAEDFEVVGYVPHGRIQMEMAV
Put plainly: biochemical. In kind it is biochemical. As to conditions: 23°C.
From the text: as §1

By IC50 is commonly meant the concentration that gives 50% inhibition. The IC90 is the point of the concentration-response curve where the effect stands at 90%.

“Also recorded” adds a separate entry of the source. Where two headings read alike, the source gives them in different places.

With `CC1(C)N=C(N)N=C(N)N1OCCCOc1ccc(OC(F)(F)F)cc1Cl` [JPC-2067-B, 4,6-diamino-1,2-dihydro-2,2-dimethyl-1-(3′(2-chloro-, 4-trifluoromethoxyphenoxy)propyloxy)-1,3,5-triazine], the IC50 in series [1] was 20 nM; at Mav DHFR, 3.75 nM; at hDHFR (recombinant, 23°C, (95% Confidence Intervals), read-out: hDHFR IC50), 148 nM; on hDHFR (text to Figure 5 and Table 2, read-out: IC50 for human DHFR), 150 nM; against TgDHFR (Tg lysate, (95% Confidence Intervals)) it was 32 nM. Also, the IC90 in series [1] (read-out: IC90, T. gondii tachyzoites in tissue culture) came to 50 nM. In addition, the “Toxicity for host cells, uptake of tritiated thymidine by nonconfluent fibroblasts” value in series [2] is recorded as “no toxic effect on host cells; also recorded: no toxicity”. For the same molecule, the “Ratio of IC50 values hDHFR/tgDHFR” value on TgDHFR (high throughput method) turned out to be 4.6.

Source of the values: paper PMC2254147, “Novel Triazine JPC-2067-B Inhibits Toxoplasma gondii In Vitro and In Vivo” (PLoS Neglected Tropical Diseases, 2008).
